molecular target: T1, 5-HT1A receptors (Rattus norvegicus, UniProt P19327); experiment: 8-OH DPAT cue agonism in rats (drug discrimination); format: in vivo, male Wistar rats; set-up: agonist effects of a test compound on 5-HT1A receptors in vivo; from tissue; host or cells: living male Wistar rats (endogenous receptor, in vivo); conditions: sc, read-out: 8-OH DPAT Cue Agonism ED50, rats, s.c., usually 30 or 45 min before test
T1 sequence (P19327 1-422): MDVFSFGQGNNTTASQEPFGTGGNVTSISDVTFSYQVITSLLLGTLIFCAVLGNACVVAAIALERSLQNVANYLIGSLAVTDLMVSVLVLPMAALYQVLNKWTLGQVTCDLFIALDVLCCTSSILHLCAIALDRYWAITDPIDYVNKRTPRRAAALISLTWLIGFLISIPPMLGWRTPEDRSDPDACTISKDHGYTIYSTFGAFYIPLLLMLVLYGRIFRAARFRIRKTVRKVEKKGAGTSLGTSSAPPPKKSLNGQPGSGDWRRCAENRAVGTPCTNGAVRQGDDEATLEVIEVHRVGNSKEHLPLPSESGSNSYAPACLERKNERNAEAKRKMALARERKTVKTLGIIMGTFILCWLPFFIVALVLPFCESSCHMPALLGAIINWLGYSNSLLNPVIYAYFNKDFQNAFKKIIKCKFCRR
Method: 8-OH DPAT Cue Agonisme in Rats
This test model is used to determine the agonist effects of a test compound on 5-HT1A receptors in vivo. A related method is described by Tricklebank, M. D., et al, Eur. J. Pharmacol., 1987, 133, 47-56; Arnt, J. Pharmacology & Toxicology, 1989, 64, 165.
Male Wistar rats are trained to discriminate between 8-OH-DPAT (0.4 mg/kg, i.p., 15 min pretreatment) and physiological saline in operant chambers equipped with two response levers. Between the levers a dipper is placed, where water rewards (0.1 ml) are presented. The rats are water deprived for at least 24 h and work in a fixed ratio (FR) schedule (final FR=32).
Following 8-OH-DPAT administration responding is reinforced only on a designated (drug) lever, whereas responding on the opposite lever has no consequences. Following saline administration responding is reinforced on the lever opposite to the drug lever. Drug and saline trials alternate randomly between days. The level of s discrimination occuracy is expressed as the per cent drug responses and is calculated as the number of correct responses ×100 divided by the sum of the correct and incorrect responses before the first reward. The time to the first reward is also recorded as a measure of reaction time. When stable occuracy (mean correst responding=90%; individual rats at least 75% correct responding) is obtained test sessions are included between training days. Test compound is injected s.c. usually 30 min or 45 min, respectively, before beginning of the test. The test trial is terminated when a total of 32 responses are made on either lever or when 20 min have elapsed. No reward is given and the rats have free access to water for 20-30 min after the test. The effects are expressed as per cent drug responding. Only results from rats making at least 10 responses on one lever are included in data analysis. Furthermore, only test sessions in which at least half of the rats respond are included.
The per cent inhibition of drug response obtained for each dose of test compound is used to calculate ED50 values by log-probit analysis.

Row | Compound | ED50 [µmol/kg]
1 | CCCN(CCC)C1CCc2cccc(O)c2C1 (centres unmarked) [8-OH DPAT, 8-hydroxy-2-dipropylaminotetralin, reference compound] | 0.1

molecular target: T1, 5-HT1A receptors; experiment: Inhibition of 3H-8-OH-DPAT binding to serotonin 5-HT1A receptors in rat brain in vitro; set-up: 5-HT1A receptors in membranes from rat brain minus cerebellum; from tissue; host or cells: brain minus cerebellum of male Wistar (Mol:Wist) rats, crude membranes; species or system rat (male Wistar); conditions: 3H 8-OH DPAT binding IC50, 1 nM 3H-8-OH-DPAT, rat brain minus cerebellum membranes, 37° C., 15 min
Method: Male Wistar (Mol:Wist) rats (125-250 g) are sacrificed and the brain is dissected and weighed. The brain tissue minus cerebellum is homogenized (Ultra Turrax, 20 sec) in 10 ml of ice cold 50 nM Tris buffer pH 8.0 (at 25° C.) containing 120 mM NaCl, 4 mM CaCl2 and 4 mM MgCl2. The homogenate is centrifuged at 20,000 g for 10 min at 4° C. The pellet is homogenized in 10 ml of buffer and incubated at 37° C. for 10 min. The homogenate is centrifuged as above and the pellet is homogenized in 100 vol (w/v) ice cold buffer containing 10 μM of pargyline.
Incubation tubes kept on ice in triplicate receive 100 μl of drug solution in water (or water for total binding) and 1000 μl of tissue suspension (final tissue content corresponds to 10 mg original tissue). […] After incubation for 15 min the samples are filtered under vacuum (0-50 mBar) through Whatman GF/F filters (25 mm). The tubes are rinsed with 5 ml ice cold 0.9% NaCl which is then poured on the filters. Thereafter, the filters are washed with 2×5 ml 0.9% NaCl. The filters are placed in counting vials and 4 ml of appropriate scintillation fluid (e.g. Picofluor™ 15) are added. After shaking for 1 h and storage 2 h in the dark the content of radioactivity is determined by liquid scintillation counting. Specific binding is obtained by subtracting the nonspecific binding in the presence of 10 μM of 5-HT.
For determination of the inhibition of binding five concentrations of drugs covering 3 decades are used.
The IC50 -value is determined as the concentration, at which the binding is 50% of the total binding in control samples minus the nonspecific binding in the presence of 10 μM of 5-HT.

Row | Compound | IC50 [nM]
2 | CCCCCCCCCNC(=O)Nc1ccc2c(c1)C(CN(CCC)CCC)CC2 (centres unmarked) [Compound 4d, 1-(N,N-dipropylaminomethyl)-6-(3-nonyl-1-ureido)indan] | 170
3 | CN(C)CC1CCc2ccc(NC=O)cc21 (single isomer, unassigned; (-)) [Compound 10g, (-)-1-(N,N-dimethylaminomethyl)-6-formylaminoindan] | 48
4 | CC(=O)Nc1ccc2c(c1)C(CN1CCCCC1)CC2 (single isomer, unassigned; (+)) [Compound 8f, (+)-6-acetylamino-1-(1-piperidinomethyl)indan] | 15
5 | CCCN(CCC)CC1CCc2ccc(NC(N)=O)cc21 (centres unmarked) [Compound 3a, 1-(N,N-dipropylaminomethyl)-6-ureido-indan] | 0.56
6 | CC(=O)Nc1ccc2c(c1)C(CN(C)CCCCN1CCN(C3CCCCC3)C1=O)CC2 (centres unmarked) [Compound 13f, 6-Acetylamino-1-[N-[4-(3-cyclohexyl-2-imidazolidinon-1-yl)-1-butyl]-N-methylaminomethyl]indan] | 5.1
7 | CN(C)CC1CCc2ccc(NC=O)cc21 (single isomer, unassigned; (+)) [Compound 10h, (+)-1-(N,N-dimethylaminomethyl)-6-formylaminoindan] | 220
8 | CCCN(CCC)CC1CCc2ccc(NCc3ccc(F)cc3)cc21 (centres unmarked) [Compound 6a, 1-(N,N-dipropylaminomethyl)-6-(4-fluorobenzylamino)indan] | 20
9 | CCCN(CCC)CC1CCc2ccc(NC=O)cc21 (single isomer, unassigned; (-)) [Compound 10a, (-)-1-(N,N-dipropylaminomethyl)-6-formylaminoindan] | 1
10 | CCCN(CCC)CC1CCc2ccc(NC(=O)N(C)C)cc21 (single isomer, unassigned; (+)) [Compound 10d, (+)-6-(3,3-dimethyl-1-ureido)-1-(N,N-dipropylaminomethyl)indan] | 22
11 | CCCN(CCC)CC1CCc2ccc(NC(=O)Nc3ccc(F)cc3)cc21 (single isomer, unassigned; (+)) [Compound 10f, (+)-6-[3-(4-fluorophenyl)-1-ureido]-1-(N,N-dipropylaminomethyl)indan] | 63
12 | CCCN(CCC)CC1CCc2ccc(NC(C)=O)cc21 (single isomer, unassigned; (-)) [Compound 8a, (-)-6-Acetylamino-1-(N,N-dipropylaminomethyl)indan] | 0.64
13 | CCCN(CCC)CC1CCc2ccc(NC(=O)NC)cc21 (centres unmarked) [Compound 4b, 1-(N,N-dipropylaminomethyl)-6-(3-methyl-1-ureido)indan] | 6.6
14 | O=CNc1ccc2c(c1)C(CN1CCCC1)CC2 (centres unmarked) [Compound 1d, 6-Formylamino-1-(1-pyrrolidinomethyl)indan] | 19
15 | CCCN(CCC)CC1CCc2ccc(NC(C)=O)c(Cl)c21 (centres unmarked) [Compound 2f, 6-Acetylamino-7-chloro-1-(N,N-dipropylaminomethyl)indan] | 340
16 | CCCN(CCC)CC1CCc2ccc(NC=O)cc21 (single isomer, unassigned; (+)) [Compound 10b, (+)-1-(N,N-dipropylaminomethyl)-6-formylaminoindan] | 4.2
17 | CC(=O)Nc1ccc2c(c1)C(CN(C)CCN1CCN(c3ccc(F)cc3)C1=O)CC2 (centres unmarked) [Compound 13e, 6-Acetylamino-1-[N-[2-[3-(4-fluorophenyl)-2-imidazolidinon-1-yl]ethyl]-N-methyl-aminomethyl]indan] | 27

Row | Compound | IC50 [nM]
18 | CC(=O)Nc1ccc2c(c1)C(CN(C)CCCN1CCN(C3CCCCC3)C1=O)CC2 (centres unmarked) [Compound 13i, 6-Acetylamino-1-[N-[3-(3-cyclohexyl-2-imidazolidinon-1-yl)-1-propyl]-N-methylaminomethyl]indan] | 2.2
19 | CC(=O)Nc1ccc2c(c1)C(CN1CCCCC1)CC2 (centres unmarked) [Compound 5c, 6-acetylamino-1-(1-piperidinomethyl)indan] | 6.5
20 | CCCN(CCC)CC1CCc2ccc(NS(C)(=O)=O)c(Cl)c21 (centres unmarked) [Compound 2h, 7-chloro-1-(N,N-dipropylaminomethyl)-6-(methylsulphonylamino)indan] | 2000
21 | CCCN(CCC)CC1CCc2ccc(NC(=O)Nc3ccc(F)cc3)cc21 (single isomer, unassigned; (-)) [Compound 10e, (-)-6-[3-(4-fluorophenyl)-1-ureido]-1-(N,N-dipropylaminomethyl)indan] | 160
22 | CNCC1CCc2ccc(NC(C)=O)cc21 (centres unmarked) [Compound 12a, 6-Acetylamino-1-(N-methylaminomethyl)indan] | 25
23 | CC(=O)Nc1ccc2c(c1)C(CN1CCCCC1)CC2 (single isomer, unassigned; (-)) [Compound 8e, (-)-6-acetylamino-1-(1-piperidinomethyl)indan] | 6.7
24 | CC(=O)Nc1ccc2c(c1)C(CN1CCCCC1)CS2 (centres unmarked) [Compound 2i, 5-acetylamino-3-(1-piperidinomethyl)-2,3-dihydrobenzothiophene] | 6.3
25 | CC(=O)Nc1ccc2c(c1)C(CN(C)CCCN1CCN(c3ccccc3)C1=O)CC2 (centres unmarked) [Compound 13g, 6-Acetylamino-1-[N-methyl-N-[3-(3-phenyl-2-imidazolidinon-1-yl)-1-propyl]aminomethyl]indan] | 1
26 | CC(=O)Nc1ccc2c(c1)C(CN(C)CCCCCCN1CCN(C3CCCC3)C1=O)CC2 (centres unmarked) [Compound 13j, 6-Acetylamino-1-[N-[6-(3-cyclopentyl-2-imidazolidinon-1-yl)-1-hexyl]-N-methylaminomethyl]indan] | 3.2
27 | CCCN(CCC)CC1CCc2cc(Cl)c(NC(C)=O)cc21 (single isomer, unassigned; (+)) [Compound 11c, (+)-6-Acetylamino-5-chloro-1-(N,N-dipropylaminomethyl)indan] | 14
28 | CCCN(CCC)CC1CCc2ccc(NC(=O)N(C)C)cc21 (single isomer, unassigned; (-)) [Compound 10c, (-)-6-(3,3-dimethyl-1-ureido)-1-(N, N-dipropylaminomethyl)indan] | 8.1
29 | CCCN(CCC)CC1CCc2ccc(NC(=O)NC3CCCC3)cc21 (centres unmarked) [Compound 4e, 6-(3-cyclopentyl-1-ureido)-1-(N,N-dipropylaminomethyl)indan] | 170
30 | CC(=O)Nc1ccc2c(c1)C(CN(C)CCCCN1CCNC1=O)CC2 (centres unmarked) [Compound 13k, 6-Acetylamino-1-[N-[4-(2-imidazolidinon-1-yl)-1-butyl]-N-methylaminomethyl]indan] | 790
31 | CCCN(CCC)CC1CCc2cc(Br)c(NC(C)=O)cc21 (centres unmarked) [Compound 11d, 6-Acetylamino-5-bromo-1-(N,N-dipropylaminomethyl)indan] | 120
32 | CC(=O)Nc1ccc2c(c1)C(CN(C)CCCCN1CCN(c3ccc(F)cc3)C1=O)CC2 (centres unmarked) [Compound 13h, 6-Acetylamino-1-[N-[4-[3-(4-fluorophenyl)-2-imidazolidinon-1-yl]-1-butyl]-N-methylaminomethyl]indan] | 4.8
33 | CCCN(CCC)CC1CCc2ccc(NC(=O)Nc3ccccc3)cc21 (centres unmarked) [Compound 4a, 1-(N,N-dipropylaminomethyl)-6-(3-phenyl-1-ureido)indan] | 80

same assay, conditions: read-out: 3H 8-OH DPAT binding IC50; 1 nM 3H-8-OH-DPAT, rat brain minus cerebellum membranes, 37° C., 15 min

Row | Compound | IC50 [nM]
34 | 3-[N-(2-phenylethyl)-N-propylaminomethyl]-5-formylaminomethyl-2,3-dihydrobenzothiophene [Compound 5b] | 60
35 | CCCN(CCC)CC1CCc2ccc(NC(C)=O)cc21 (single isomer, unassigned; (+)) [Compound 8b, (+)-6-Acetylamino-1-(N,N-dipropylaminomethyl)indan] | 0.64

— patent publication US5807889A, “Aminomethylindans, -benzofuranes and -benzothiophenes” (H. Lundbeck A/S, priority 1992, dated 1998)
